Broadly, the EC50 is the concentration at which the effect is half-maximal.

A value given as a limit tells only on which side of the number the result lay.

For 33 compounds, EC50 results are on record in patent publication US20230348426A1, “OXOPYRROLIDINE FPR2 AGONISTS” (Bristol-Myers Squibb Company, priority 2020, published 2023).

One experiment addresses human FPR2 (Homo sapiens (Human), UniProt P25090). The experiment in a line: FPR2 cyclic adenosine monophosphate (cAMP) assay. It counts as cell-based. Conditions: CHO cells overexpressing human FPR2; forskolin 5 µM; inhibition of cAMP production; read-out: hFPR2 cAMP2 EC50. The text has this: (§1) N-formyl peptide receptors (FPRs) are a family of chemo attractant receptors that facilitate leukocyte response during inflammation. FPRs belong to the seven-transmembrane G protein-coupled receptor superfamily and are linked to inhibitory G-proteins (Gi). Three family members (FPR1, FPR2 and FPR3) have been identified in humans and are predominantly found in myeloid cells with varied distribution and have also been reported in multiple organs and tissues. After agonist binding, the FPRs activate a multitude of physiological pathways, such as intra cellular signaling transduction, Ca^2+ mobilization and transcription. The family interacts with a diverse set of ligands that includes proteins, polypeptides and fatty acid metabolites which activate both pro-inflammatory and pro-resolution downstream responses. FPR2 and FPR1 Cyclic Adenosine Monophosphate (cAMP) Assays were used to measure the activity of the compounds in this patent.
(§2) FPR2 and FPR1 Cyclic Adenosine Monophosphate (cAMP) Assays. A mixture of forskolin (5 µM final for FPR2 or 10 µM final for FPR1) and IBMX (200 µM final) were added to 384-well Proxiplates (Perkin-Elmer) pre-dotted with test compounds in DMSO (1% final) at final concentrations in the range of 0.020 nM to 100 µM. Chinese Hamster Ovary cells (CHO) overexpressing human FPR1 or human FPR2 receptors were cultured in F-12 (Ham’s) medium supplemented with 10% qualified FBS, 250 µg/ml zeocin and 300 µg/ml hygromycin (Life Technologies). Reactions were initiated by adding 2,000 human FPR2 cells per well or 4,000 human FPR1 cells per well in Dulbecco’s PBS (with calcium and magnesium) (Life Technologies) supplemented with 0.1% BSA (Perkin-Elmer). The reaction mixtures were incubated for 30 min at room temperature. The level of intracellular cAMP was determined using the HTRF HiRange cAMP assay reagent kit (Cisbio) according to manufacturer’s instruction. Solutions of cryptate conjugated anti-cAMP and d2 flurorophore-labelled cAMP were made in a supplied lysis buffer separately. Upon completion of the reaction, the cells were lysed with equal volume of the d2-cAMP solution and anti-cAMP solution. After a 1-h room temperature incubation, time-resolved fluorescence intensity was measured using the Envision (Perkin-Elmer) at 400 nm excitation and dual emission at 590 nm and 665 nm. A calibration curve was constructed with an external cAMP standard at concentrations ranging from 1 µM to 0.1 pM by plotting the fluorescent intensity ratio from 665 nm emission to the intensity from the 590 nm emission against cAMP concentrations. The potency and activity of a compound to inhibit cAMP production was then determined by fitting to a 4-parametric logistic equation from a plot of cAMP level versus compound concentrations.

In the next experiment the target is human FPR1 (Homo sapiens (Human), UniProt P21462). The experiment in a line: FPR1 cyclic adenosine monophosphate (cAMP) assay. The class given is cell-based. Conditions: CHO cells overexpressing human FPR1; forskolin 10 µM; inhibition of cAMP production; read-out: hFPR1 cAMP EC50.
From the text: as §1
as §2, with “After a 1-h room temperature incubation, time-resolved fluorescence intensity was measured using the Envision (Perkin-Elmer) at 400 nm excitation and dual emission at 590 nm and 665 nm. A calibration curve was constructed with an external cAMP standard at concentrations ranging from 1 µM to 0.1 pM by plotting the fluorescent intensity ratio from 665 nm emission to the intensity from the 590 nm emission against cAMP concentrations.” left out
For orientation: cAMP levels reflect the balance of adenylyl cyclase and phosphodiesterase activity.

human FPR2, sequence (P25090 whole entry): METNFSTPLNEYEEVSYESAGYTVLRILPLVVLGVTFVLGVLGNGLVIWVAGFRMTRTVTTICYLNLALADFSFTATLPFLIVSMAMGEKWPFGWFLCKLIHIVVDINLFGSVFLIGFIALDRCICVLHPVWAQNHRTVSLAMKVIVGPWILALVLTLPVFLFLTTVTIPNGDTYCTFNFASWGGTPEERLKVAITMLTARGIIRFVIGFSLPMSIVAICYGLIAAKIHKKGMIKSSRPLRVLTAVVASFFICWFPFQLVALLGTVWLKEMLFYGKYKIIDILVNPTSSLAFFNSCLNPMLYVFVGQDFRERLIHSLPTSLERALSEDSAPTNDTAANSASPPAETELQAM
human FPR1, sequence (P21462 whole entry): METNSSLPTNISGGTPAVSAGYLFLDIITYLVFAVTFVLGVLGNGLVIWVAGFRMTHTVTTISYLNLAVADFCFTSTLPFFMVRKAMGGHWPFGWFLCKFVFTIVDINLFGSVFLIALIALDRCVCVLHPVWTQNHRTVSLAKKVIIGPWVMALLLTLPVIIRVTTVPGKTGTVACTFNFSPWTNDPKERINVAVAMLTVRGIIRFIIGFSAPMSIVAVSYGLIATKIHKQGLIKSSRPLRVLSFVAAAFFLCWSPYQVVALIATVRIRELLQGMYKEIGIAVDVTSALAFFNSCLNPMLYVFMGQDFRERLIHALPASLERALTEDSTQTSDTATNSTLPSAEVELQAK

On to `COc1cc(F)c([C@@H]2CN(c3ncccc3C#N)C(=O)[C@H]2NC(=O)c2ccc(OC(F)(F)F)cc2)c(F)c1` [Example 15], for which the EC50 on human FPR2 was 0.022 µM; on human FPR1 it was 1.1 µM.
For the compound `COc1cc(F)c([C@@H]2CN(Cc3ccccc3P(C)(C)=O)C(=O)[C@H]2NC(=O)c2ccc(OC(F)(F)F)cc2)c(F)c1` [Example 17], the EC50 on human FPR2 stood at 0.036 µM; on human FPR1, 0.069 µM.
Regarding `COc1cc(F)c([C@@H]2CN(Cc3ccccc3P(C)(C)=O)C(=O)[C@H]2NC(=O)c2ccc(OC(F)F)cc2)c(F)c1` [Example 18], the EC50 on human FPR2 came out at 0.037 µM; at human FPR1, 0.2 µM.
For the compound `COc1cc(F)c([C@@H]2CN(c3ccccc3P(C)(C)=O)C(=O)[C@H]2NC(=O)c2ccc(OC(F)(F)F)cc2)c(F)c1` [Example 19], the EC50 was 0.024 µM on human FPR2 and 0.54 µM on human FPR1.
`COc1cc(F)c([C@@H]2CN(CC3CC3)C(=O)[C@H]2NC(=O)c2ccc(OC(F)(F)F)cc2)c(F)c1` [Example 20]: the EC50 at human FPR2 is 0.032 µM; at human FPR1 it was 0.56 µM.
For `COc1cc(F)c([C@@H]2CN(c3cccnc3C#N)C(=O)[C@H]2NC(=O)c2ccc(OC(F)(F)F)cc2)c(F)c1` [Example 21], the EC50 came out at 0.035 µM on human FPR2 and 2.3 µM on human FPR1.
Taken in the same sequence, the figures for `COc1cc(F)c([C@@H]2CN(c3ncccc3P(C)(C)=O)C(=O)[C@H]2NC(=O)c2ccc(OC(F)(F)F)cc2)c(F)c1` [Example 22] were 0.013 µM and 3.2 µM.
`COc1ccnc(N2C[C@@H](c3c(F)cc(OC)cc3F)[C@H](NC(=O)c3ccc(OC(F)(F)F)cc3)C2=O)c1` [Example 23]: the EC50 on human FPR2 turned out to be 0.028 µM; on human FPR1, 1.5 µM.
Taken in the same sequence, the figures for `COc1cc(F)c([C@@H]2CN(c3cccc(C(F)F)n3)C(=O)[C@H]2NC(=O)c2ccc(OC(F)(F)F)cc2)c(F)c1` [Example 24] were 0.045 µM and 0.3 µM.
`COc1cc(F)c([C@@H]2CN(c3ncccc3P(C)(C)=O)C(=O)[C@H]2NC(=O)c2ccc(OC(F)F)cc2)c(F)c1` [Example 25]: the concentration giving a half-maximal response (EC50) at human FPR2 was 0.035 µM; at human FPR1, greater than 10 µM.
Turning to `COc1cc(F)c([C@@H]2CN(c3ccc(=O)n(C)c3)C(=O)[C@H]2NC(=O)c2ccc(OC(F)(F)F)cc2)c(F)c1` [Example 26], the EC50 at human FPR2 is 0.035 µM; at human FPR1, 0.027 µM.
On to `COc1cc(F)c([C@@H]2CN(c3ncccc3CO)C(=O)[C@H]2NC(=O)c2ccc(OC(F)(F)F)cc2)c(F)c1` [Example 27], for which the EC50 stood at 0.027 µM on human FPR2 and 0.57 µM at human FPR1.
Taken in the same sequence, the figures for `COc1cc(F)c([C@@H]2CN(c3ncccc3F)C(=O)[C@H]2NC(=O)c2ccc(OC(F)(F)F)cc2)c(F)c1` [Example 28] were 0.007 µM and 1.1 µM.
Consider `COc1cc(F)c([C@@H]2CN(c3cc(F)cc(OC(C)C)c3)C(=O)[C@H]2NC(=O)c2ccc(OC(F)F)cc2)c(F)c1` [Example 29], for which the figures for the EC50 on human FPR2 and on human FPR1 were 0.051 µM and 0.11 µM, respectively.
Taken in the same sequence, the figures for `COc1cc(F)c([C@@H]2CN(c3cccnc3P(C)(C)=O)C(=O)[C@H]2NC(=O)c2ccc(OC(F)F)cc2)c(F)c1` [Example 30] were 0.01 µM and 0.75 µM.
As for `COc1cc(F)c([C@@H]2CN(c3ccccc3P(C)(C)=O)C(=O)[C@H]2NC(=O)c2ccc(OC(F)F)cc2)c(F)c1` [Example 31], the EC50 on human FPR2 was 0.01 µM; at human FPR1 it was 0.15 µM.
Taken in the same sequence, the figures for `COc1ccnc(N2C[C@@H](c3c(F)cc(OC)cc3F)[C@H](NC(=O)c3ccc(OC(F)F)cc3)C2=O)c1` [Example 32] were 0.018 µM and 0.96 µM.
On to `COc1cc(F)c([C@@H]2CN(c3ncccc3F)C(=O)[C@H]2NC(=O)c2ccc(OC(F)F)cc2)c(F)c1` [Example 33], for which the EC50 on human FPR2 turned out to be 0.005 µM; at human FPR1, 1.61 µM.
`COc1cc(F)c([C@@H]2CN(c3cccn(C)c3=O)C(=O)[C@H]2NC(=O)c2ccc(OC(F)F)cc2)c(F)c1` [Example 34]: the results for the EC50 on human FPR2 and at human FPR1 were 0.0038 µM and 0.3 µM, respectively.
As for `COc1cc(N2CCN(C)CC2)nc(N2C[C@@H](c3c(F)cc(OC)cc3F)[C@H](NC(=O)c3ccc(OC(F)F)cc3)C2=O)c1` [Example 35], the EC50 on human FPR2 is 0.0031 µM; at human FPR1 it was greater than 10 µM.
Taken in the same sequence, the figures for `COCCn1cccc(N2C[C@@H](c3c(F)cc(OC)cc3F)[C@H](NC(=O)c3ccc(OC(F)F)cc3)C2=O)c1=O` [Example 36] were 0.0055 µM and 0.03 µM.
As to `COCCn1cccc(N2C[C@@H](c3c(F)cc(OC)cc3F)[C@H](NC(=O)c3ccc(OC(F)(F)F)cc3)C2=O)c1=O` [Example 37], the concentration giving a half-maximal response (EC50) at human FPR2 is 0.0089 µM; at human FPR1, 0.016 µM.
Taken in the same sequence, the figures for `CCn1cccc(N2C[C@@H](c3c(F)cc(OC)cc3F)[C@H](NC(=O)c3ccc(OC(F)F)cc3)C2=O)c1=O` [Example 38] were 0.0051 µM and 0.018 µM.
Taken in the same sequence, the figures for `COc1cc(N2C[C@@H](c3c(F)cc(OC)cc3F)[C@H](NC(=O)c3ccc(Cl)cc3)C2=O)nc(N2C[C@@H]3C[C@H]2CN3C)c1` [Example 40] were 0.0006 µM and 2.6 µM.
As for `COCC(CN)n1cccc(N2C[C@@H](c3c(F)cc(OC)cc3F)[C@H](NC(=O)c3ccc(OC(F)F)cc3)C2=O)c1=O` (stereo partly drawn) [Example 41], the EC50 on human FPR2 is 0.0006 µM; at human FPR1 it was 0.11 µM.
On to `COc1cc(F)c([C@@H]2CN(c3nc(N4C[C@@H](C)N(C)[C@@H](C)C4)ccc3F)C(=O)[C@H]2NC(=O)c2ccc(OC(F)F)cc2)c(F)c1` [Example 42], for which the EC50 on human FPR2 is 0.0007 µM; at human FPR1, 0.73 µM.
Taken in the same sequence, the figures for `COCC(CN)n1cccc(N2C[C@@H](c3c(F)cc(OC)cc3F)[C@H](NC(=O)c3ccc(OC(F)F)cc3)C2=O)c1=O` (stereo partly drawn) [Example 44] were 0.001 µM and 0.01 µM.
Taken in the same sequence, the figures for `COc1ccc([C@@H]2CN(c3cccn(CC(F)F)c3=O)C(=O)[C@H]2NC(=O)c2ccc(OC(F)(F)F)cc2)c(F)c1` [Example 45] were 0.001 µM and 0.0043 µM.
Take `COc1cc(F)c([C@@H]2CN(c3nc(N4CCC4=O)ccc3F)C(=O)[C@H]2NC(=O)c2ccc(OC(F)F)cc2)c(F)c1` [Example 46]: the EC50 at human FPR2 stood at 0.001 µM; on human FPR1 it was 0.002 µM.
Taken in the same sequence, the figures for `COc1cc(F)c([C@@H]2CN(c3cccn(CC(O)C(F)(F)F)c3=O)C(=O)[C@H]2NC(=O)c2ccc(OC(F)(F)F)cc2)c(F)c1` (stereo partly drawn) [Example 47] were 0.0011 µM and 0.15 µM.
Taken in the same sequence, the figures for `COc1cc(F)c([C@@H]2CN(c3cccc(N4C[C@@H](C)N(C)[C@@H](C)C4)n3)C(=O)[C@H]2NC(=O)c2ccc(OC(F)F)cc2)c(F)c1` [Example 48] were 0.0011 µM and 0.94 µM.
Taken in the same sequence, the figures for `COc1cc(N2C[C@@H]3C[C@H]2CN3C)nc(N2C(=O)[C@@H](NC(=O)c3ccc(Cl)cc3)[C@H](c3c(F)cc(OC)cc3F)[C@H]2C)c1` [Example 49] were 0.0011 µM and 2 µM.
As for `COc1cc(F)c([C@@H]2CN(c3nc(N4C[C@H]5C[C@@H]4CN5C)ccc3F)C(=O)[C@H]2NC(=O)c2ccc(OC(F)F)cc2)c(F)c1` [Example 50], the EC50 was 0.0012 µM at human FPR2 and 1.7 µM at human FPR1.
